Assay results as given in patent US9107396B2, “Stabilized synthetic brood pheromone and race-specific ratios of components for manipulating the behavior and physiology of honey bees” (OMS Investments, Inc., priority 2006, dated 2015).

Assay: Chemical stability of simplified brood pheromone ester blends exposed to air, capillary gas chromatography
Type: physicochemical
Conditions: for time for which the component remained intact: with antioxidant stabilizer tertiary-butylhydroquinone; for percentage composition at start / percentage composition after 72 weeks: unstabilized five-component ethyl ester blend; for percentage composition at start: 72-week test; for proportional composition of the total blend at start: two-week test
Description: Short-term and long-term stability studies were conducted, with simplified blends of potentially unstable brood pheromone components mixed in approximately the same proportions as in Example 1. Short-term evaluation for a two-week duration was done on blends of methyl oleate, methyl linoleate and methyl linolenate, and ethyl oleate, ethyl linoleate and ethyl linolenate, each with and without tertiary-butylhydroquinone. Twenty-week tests were done with identical blends as for the two-week experiments, but 72-week tests had methyl and ethyl palmitate and stearate added in the appropriate proportions to their respective blends. Approximately 250 mg of a blend was placed in a 4 mL (15×45 mm) plastic vial (Chromatographic Specialties) fitted with a diffusion insert screw cap (Agilent Technologies) with a 1 mm diameter hole to allow air circulation over the sample. All blends were continuously held at a constant temperature of 30° C.
For analysis by capillary gas chromatography, approximately 1 mg of a blend was dissolved in 1 mL of diethyl ether, and a 1 μL aliquot of each extract was analyzed. Analyses were done at time zero and after the given duration of exposure to air at 30° C., using a Hewlett Packard HP5890 gas chromatograph equipped with a flame ionization detector and a 30 m long BPX-70 capillary column (J&W Scientific). The injector and detector temperatures were 260° C. and 285° C., respectively. The temperature program was 80° C. rising at 5° C. per min for 24 min to 200° C., and then rising at 20° C. per min for 3 min to 260° C.
Two-week results are given for methyl and ethyl esters (FIGS. 1 and 2), while long-term 20-week and 72-week results are given for only ethyl esters (FIGS. 3 and 4). Long-term results for methyl esters were virtually identical to those for the ethyl esters.

[1] = unstabilized blend, after two weeks exposure to air
[2] = unstabilized blend, before exposure

SMILES	decrease in amount of component in the unstabilized blend (2 weeks) [%]	time for which the component remained intact [weeks]	percentage composition at start (before exposure) [%]	percentage composition after 72 weeks [%]	further results
CCCCC/C=C\C/C=C\CCCCCCCC(=O)OCC [ethyl linoleate]	74	72	–	–	component remaining in the unstabilized blend after 20 weeks (3360 h): no ethyl linoleate; component remaining in the unstabilized blend after 72 weeks (12096 h): complete breakdown
CCCCCCCCCCCCCCCCCC(=O)OCC [ethyl stearate]	–	–	23	57	–
CC/C=C\C/C=C\C/C=C\CCCCCCCC(=O)OC [methyl linolenate]	90	72	–	–	–
CCCCCCCC/C=C\CCCCCCCC(=O)OCC [ethyl oleate]	–	72	24	10	proportional composition of the total blend after two weeks [1]: 66%; proportional composition of the total blend at start [2]: 40%; proportion of the total blend at start (unstabilized ethyl ester blend, 20-week test, before exposure): 37%; proportion of the total blend after 20 weeks (unstabilized ethyl ester blend, after 20 weeks): 43%

The next lines start with results.

decrease in amount of component in the unstabilized blend (2 weeks) [%]	time for which the component remained intact [weeks]	percentage composition at start (before exposure) [%]	percentage composition after 72 weeks [%]	SMILES	further results
85	72	–	–	CCCCC/C=C\C/C=C\CCCCCCCC(=O)OC [methyl linoleate]	–
–	–	8	20	CCCCCCCCCCCCCCCC(=O)OCC [ethyl palmitate]	–
–	72	–	–	CC/C=C\C/C=C\C/C=C\CCCCCCCC(=O)OCC [ethyl linolenate]	decrease in amount of component in the unstabilized blend [1]: 94%; component remaining in the unstabilized blend after 20 weeks (unstabilized ethyl ester blend, 20 weeks): no ethyl linolenate remained; component remaining in the unstabilized blend after 72 weeks (unstabilized ethyl ester blend, 72 weeks): complete breakdown
–	72	–	–	CCCCCCCC/C=C\CCCCCCCC(=O)OC [methyl oleate]	proportional composition of the total blend after two weeks [1]: 82%; proportional composition of the total blend at start [2]: 48%
